Laboratory results taken from US20160017312A1, “METHOD FOR MODULATING A BACTERIAL INVASION SWITCH” (priority 2012, published 2016).

System: S. meliloti cells
Experiment: Whole cell motility (swimming colonies) with added calcium
Format: cell-based, Sinorhizobium meliloti
Details: 1 mM Ca; protease active, non-swimming S. meliloti cells
Experimental: Example 2. In no calcium or low calcium condition, most of ExoRm is in the monomeric form sensitive to protease digestion. Adding 1 mM or more Ca will turn ExoRm into dimeric form, preventing protease from binding and digesting ExoRm. So Ca is an indirect inhibitor of the protease. […] This is a typical indirect inhibitor. In the same fashion, most ions are indirect inhibitors of ExoRm protease.
Example 1. Whole cell motility assay: The whole cell motility assay is based on the fact that inhibition of the protease lead to ExoRm increase and the cell becoming motile. The initial condition may be set with either low pH or low ion concentration, so that S. meliloti cells will form non-swimming colonies. The putative direct or indirect inhibitors can be mixed with S. meliloti cells in soft agar plates. The ones that can make S. meliloti cells to form swimming colonies are the potential direct or indirect inhibitors.
Bacterial cell motility was examined using swarming plates containing 0.3% agar as described previously with some modifications. Briefly, fresh cell cultures were prepared and diluted to OD600 of 0.1. Then 2 μL of each diluted culture was inoculated into LB/MC soft agar plate and incubated for 2-3 days to determine colony size.

With [Ca+2] [Ca] the “effect on swimming of S. meliloti cells” value was “turn protease active, non-swimming S. meliloti cells into swimming cells”.
